How the values were obtained:
Assay type in all cases: cell-based
MALME-3M = assay: Human tumor cell line growth assay (SRB); conditions: Homo sapiens, Melanoma, 48 h
EKVX = assay: Human tumor cell line growth assay (SRB); conditions: Homo sapiens, NSCLC, 48 h
KM12 = assay: Human tumor cell line growth assay (SRB); conditions: Homo sapiens; Colon, KM12, 48 h
SF-539 = assay: Human tumor cell line growth assay (SRB); conditions: Homo sapiens; CNS, SF-539, 48 h
SR = assay: Human tumor cell line growth assay (SRB); conditions: Homo sapiens, Leukemia, 48 h
[1] = Human tumor cell line growth assay (SRB); conditions: human, SR cells (leukemia), read-out: LC50
NCI-H460 = assay: Human tumor cell line growth assay (SRB); conditions: Homo sapiens; NSCLC, NCI-H460, 48 h
MCF7 = assay: Human tumor cell line growth assay (SRB); conditions: Breast, MCF7, 48 h; for CC50: read-out: LC50 (the source's name)
LOX IMVI = assay: Human tumor cell line growth assay (SRB); conditions: Homo sapiens, Melanoma, 48 h
RXF 393 = assay: Human tumor cell line growth assay (SRB); conditions: Renal, RXF 393, 48 h; for CC50: read-out: LC50 (the source's name)
SF-295 = assay: Human tumor cell line growth assay (SRB); conditions: Homo sapiens; CNS, SF-295, 48 h
[2] = Human tumor cell line growth assay (SRB); conditions: human, SF-295 cells (CNS), SF-295, 48 h, read-out: LC50
[3] = Human tumor cell line growth assay (SRB); conditions: human, SNB-19 cells (CNS), SNB-19, 48 h, read-out: LC50
SNB-19 = assay: Human tumor cell line growth assay (SRB); conditions: Homo sapiens; CNS, SNB-19, 48 h
OVCAR-3 = assay: Human tumor cell line growth assay (SRB); conditions: Homo sapiens; Ovarian, OVCAR-3, 48 h
UO-31 = assay: Human tumor cell line growth assay (SRB); conditions: Renal, UO-31, 48 h; for CC50: read-out: LC50 (the source's name)
BT-549 = assay: Human tumor cell line growth assay (SRB); conditions: Breast, BT-549, 48 h; for CC50: read-out: LC50 (the source's name)
OVCAR-8 = assay: Human tumor cell line growth assay (SRB); conditions: Ovarian, OVCAR-8, 48 h; for CC50: read-out: LC50 (the source's name)
[4] = Human tumor cell line growth assay (SRB); conditions: human, EKVX cells (NSCLC), read-out: LC50
[5] = Human tumor cell line growth assay (SRB); conditions: human, KM12 cells (colon), KM12, 48 h, read-out: LC50
[6] = Human tumor cell line growth assay (SRB); conditions: human, SF-539 cells (CNS), SF-539, 48 h, read-out: LC50
[7] = Human tumor cell line growth assay (SRB); conditions: human, NCI-H460 cells (NSCLC), NCI-H460, 48 h, read-out: LC50
[8] = Human tumor cell line growth assay (SRB); conditions: human, LOX IMVI cells (melanoma), read-out: LC50
[9] = Human tumor cell line growth assay (SRB); conditions: human, OVCAR-3 cells (ovarian), OVCAR-3, 48 h, read-out: LC50
[10] = Human tumor cell line growth assay (SRB); conditions: human, RPMI-8226 cells (leukemia), RPMI-8226, 48 h, read-out: LC50
[11] = Human tumor cell line growth assay (SRB), summary over the panel; conditions: human, human tumor cell line panel (most cell lines of the panel); for most cell lines of the panel; read-out: LC50

Compound	GI50 (MALME-3M) [nM]	GI50 (EKVX) [nM]	GI50 (KM12) [nM]	GI50 (SF-539) [nM]	GI50 (SR) [nM]	GI50 (NCI-H460) [nM]	GI50 (MCF7) [nM]	CC50 (MCF7) [nM]	GI50 (RXF 393) [nM]	CC50 (RXF 393) [nM]	GI50 (SF-295) [nM]	CC50 at 48 h [2] [nM]	CC50 at 48 h [3] [nM]	GI50 (SNB-19) [nM]	GI50 (OVCAR-3) [nM]	GI50 (UO-31) [nM]	CC50 (UO-31) [nM]	GI50 (BT-549) [nM]	CC50 (BT-549) [nM]	GI50 (OVCAR-8) [nM]	other results
Cc1cc2nc3c4cc(O)ccc4n(CCN(C)C)c3nc2cc1C [JBD-139, 6-(2-(dimethylamino)ethyl)-2,3-dimethyl-6H-indolo [2,3-b]quinoxalin-9-ol]	623	1100	512	422	289	348	351	> 100000	671	5960	756	> 100000	> 100000	423	970	1390	4180	1840	> 100000	412	CC50 at 48 h [1]: > 100000 nM; GI50 (LOX IMVI): 338 nM; CC50 (OVCAR-8): > 100000 nM
Cc1cc2nc3c4cc(N)ccc4n(CCN(C)C)c3nc2cc1C [JBD-136, 6-(2-(dimethylamino)ethyl)-2,3-dimethyl-6H-indolo [2,3-b]quinoxalin-9-amine]	1270	1990	1200	882	239	434	675	57500	1130	6400	1240	33800	> 100000	767	1560	332	55300	1780	27900	556	CC50 at 48 h [4]: > 100000 nM; CC50 at 48 h [5]: 94700 nM; CC50 at 48 h [6]: 19500 nM; CC50 at 48 h [1]: > 100000 nM; CC50 at 48 h [7]: 36600 nM; GI50 (LOX IMVI): 494 nM; CC50 at 48 h [8]: 21800 nM; CC50 at 48 h [9]: 75800 nM; CC50 at 48 h [10]: 95200 nM; CC50 (OVCAR-8): > 100000 nM
COc1ccc2c(c1)c1nc3cc(C)c(C)cc3nc1n2CCN(C)C [JBA-094, 2-(9-methoxy-2,3-dimethyl-6H-indolo[2,3-b]quinoxalin-6-yl)-N,N-dimethylethanamine]	1110	1280	1050	663	409	388	332	4790	1180	6900	1110	5130	6340	719	1260	273	4930	1650	7090	531	CC50 at 48 h [4]: 6800 nM; CC50 at 48 h [5]: 6360 nM; CC50 at 48 h [6]: 5200 nM; CC50 at 48 h [1]: > 100000 nM; CC50 at 48 h [7]: 4980 nM; GI50 (LOX IMVI): 336 nM; CC50 at 48 h [8]: 6070 nM; CC50 at 48 h [9]: 6130 nM
Cc1cc2nc3c4ccccc4n(CCN(C)C)c3nc2cc1C [B220, 2-(2,3-dimethyl-6H-indolo [2,3-b]quinoxalin-6-yl)-N,N-dimethylethanamine, reference compound]	1410	2230	1930	1830	–	709	1410	34800	1560	12200	1390	42500	68600	2330	1910	726	91300	2070	28700	1160	CC50 at 48 h [4]: 83900 nM; CC50 at 48 h [5]: 38600 nM; CC50 at 48 h [6]: 15000 nM; CC50 at 48 h [7]: 37300 nM; GI50 (LOX IMVI): 748 nM; CC50 at 48 h [8]: 18900 nM; CC50 at 48 h [9]: 56800 nM; CC50 (OVCAR-8): 87200 nM
Cc1cc2nc3c4cc([N+](=O)[O-])ccc4n(CCN(C)C)c3nc2cc1C [JBA-185, 2-(2,3-dimethyl-9-nitro-6H-indolo[2,3-b]quinoxalin-6-yl)-N,N-dimethylethanamine]	542	477	567	387	250	350	356	> 100000	638	5500	388	8640	> 100000	493	590	187	21200	1950	> 100000	550	CC50 at 48 h [4]: > 100000 nM; CC50 at 48 h [5]: > 100000 nM; CC50 at 48 h [6]: 18100 nM; CC50 at 48 h [1]: > 100000 nM; CC50 at 48 h [7]: 26700 nM; CC50 at 48 h [9]: > 100000 nM; CC50 at 48 h [11]: > 100000 nM; CC50 at 48 h [10]: > 100000 nM; CC50 (OVCAR-8): > 100000 nM

— patent publication US20230312578A1, “6H-INDOLO[2,3-B]QUINOXALINE DERIVATIVES USEFUL IN THERAPY” (Vironova Medical AB, priority 2020, published 2023)
